Data on two compounds can be found in patent US20100028889A1, “COMPANION DIAGNOSTIC ASSAYS FOR CANCER THERAPY” (ABBOTT LABORATORIES, priority 2006, published 2010).

Each structure is given as a SMILES string. Read-outs that look alike come from different tables or passages of the source.

Assay in all cases: sensitivity of SCLC cell line, procedure of Oltersdorf
Common to all, as to assay type: cell-based

For one assay, the system named is DMS 114. As to conditions: Homo sapiens, read-out: sensitivity class by EC50. How it is done:
(§1) The following SCLC cell lines were obtained from ATCC (Manassis, Va.): NCI-H889, NCI-H1963, NCI-H1417, NCI-H146, NCI-H187, DMS53, NCI-H510, NCI-H209, NCI-H211, NCI-H345, NCI-H524, NCI-H69, DMS79, SHP77, NCI-H1688, NCI-H446, NCI-H740, NCI-H1048, NCI-H82, NCI-H196, SW1271, H69AR, NCI-H526, NCI-H865, NCI-H748, NCI-H711, and DMS114. All cells were cultured in the ATCC recommended media at 37° C. in a humidified atmosphere containing 5% CO2. The following leukemia and lymphoma cell lines were obtained from ATCC (Manassis, Va.): MV-4-11, RS4;11, Loucy, KG-1A, DOHH2, Rs11380, CCRF-HSB-2, CCRF-CEM, CEM/C1, Reh, SUP-B15, MOLT-4, SUDHL4, HL-60, RPMI 8226, A3, Daudi, WSU-NHL, Pfeiffer, Jurkat I 9.2, Jurkat, MEG-01, U-937, K-562, and Raji.
(§2) The 27 SCLC cell lines were tested for sensitivity to ABT-737 using the procedure described in Oltersdorf, T., “An inhibitor of Bcl-2 family proteins induces regression of solid tumours”, Nature, 435: 677-681, 2005, with a cell line classified as sensitive if its EC50<5 μM and as resistant if its EC50>5 µM. The sensitive cell line group consisted of NCI-H889, NCI-H1963, NCI-H1417, NCI-H146, DMS 53, NCI-H187, NCI-H510, NCI-H209, NCI-H345, NCI-H526, NCI-H211, NCI-H865, NCI-H524, NCI-H748, DMS 79, NCI-H69, NCI-H711, SHP 77, NCI-H1688, and the resistant cell line group was comprised of NCI-H446, NCI-H740, NCI-H1048, NCI-H82, NCI-H196, SW1271, DMS 114, and NCI-H69AR.
(§3) The 22 SCLC cell lines were tested for sensitivity to ABT-263 using the procedure described in Oltersdorf, T., “An inhibitor of Bcl-2 family proteins induces regression of solid tumours”, Nature, 435: 677-681, 2005, with a cell line classified as sensitive if its EC50<5 µM and as resistant if its EC50>5 μM. The sensitive cell line group consisted of NCI-H146, NCI-H889, NCI-H1963, NCI-H187, NCI-H1417, NCI-H211, NCI-H69, NCI-H209, NCI-H510, DMS 53, DMS 79, NCI-H345, NCI-H1048, SHP 77, NCI-H446 and the resistant cell line group was comprised of NCI-H1688, NCI-H740, NCI-H82, NCI-H69AR, SW1271, DMS 114 and NCI-H 196.

A further assay deals with DMS 53. As to conditions: Homo sapiens, read-out: sensitivity class by EC50. How it is done:
as §1, §2, §3

Another assay has as its system DMS 79. The settings on record: Homo sapiens, read-out: sensitivity class by EC50. How it is done:
as §1, §2, §3

The next assay deals with NCI-H1048. As to conditions: Homo sapiens, read-out: sensitivity class by EC50. The method, then:
as §1, §2, §3

In a further assay the test system is NCI-H1417. As to conditions: Homo sapiens, read-out: sensitivity class by EC50. How it is done: as §1, §2, §3
The next assay has as its system NCI-H146. The settings on record: Homo sapiens, read-out: sensitivity class by EC50. The method, then:
as §1, §2, §3

For another assay, the system named is NCI-H1688. The settings on record: Homo sapiens, read-out: sensitivity class by EC50. How it is done:
as §1, §2, §3

The test system of the next assay is NCI-H187. The settings on record: Homo sapiens, read-out: sensitivity class by EC50. How it is done:
as §1, §2, §3

The test system of the next assay is NCI-H1963. The settings on record: Homo sapiens, read-out: sensitivity class by EC50. How it is done:
as §1, §2, §3

Another assay has as its system NCI-H196. As to conditions: Homo sapiens. The method, then:
as §1, §2, §3

Another assay deals with NCI-H209. The settings on record: Homo sapiens, read-out: sensitivity class by EC50. The method, then: as §1, §2, §3
For the next assay, the system named is NCI-H211. As to conditions: Homo sapiens, read-out: sensitivity class by EC50. The method, then:
as §1, §2, §3

In another assay the test system is NCI-H345. As to conditions: Homo sapiens, read-out: sensitivity class by EC50. The method, then: as §1, §2, §3
A further assay deals with NCI-H446. The settings on record: Homo sapiens, read-out: sensitivity class by EC50. How it is done: as §1, §2, §3
Another assay relates to NCI-H510. The settings on record: Homo sapiens, read-out: sensitivity class by EC50. The method, then: as §1, §2, §3
For another assay, the system named is NCI-H69AR. As to conditions: Homo sapiens, read-out: sensitivity class by EC50. How it is done:
as §1, §2, §3

In another assay the test system is NCI-H69. As to conditions: Homo sapiens, read-out: sensitivity class by EC50. How it is done:
as §1, §2, §3

Another assay concerns NCI-H740. As to conditions: Homo sapiens, read-out: sensitivity class by EC50. The method, then: as §1, §2, §3
The next assay has as its system NCI-H82. As to conditions: Homo sapiens, read-out: sensitivity class by EC50. How it is done: as §1, §2, §3
In a further assay the test system is NCI-H889. As to conditions: Homo sapiens, read-out: sensitivity class by EC50. How it is done: as §1, §2, §3
In another assay the test system is SHP 77. The settings on record: Homo sapiens, SHP77, read-out: sensitivity class by EC50. How it is done:
as §1, §2, §3

In a further assay the test system is SW1271. As to conditions: Homo sapiens, read-out: sensitivity class by EC50. The method, then: as §1, §2, §3

The term EC50 denotes the concentration that produces a half-maximal response. Consider `CC1(C)CCC(c2ccc(Cl)cc2)=C(CN2CCN(c3ccc(C(=O)NS(=O)(=O)c4ccc(N[C@H](CCN5CCOCC5)CSc5ccccc5)c(S(=O)(=O)C(F)(F)F)c4)cc3)CC2)C1` [ABT-263, N-(4-(4-((2-(4-chlorophenyl)-5,5-dimethyl-1-cyclohex-1-en-1-yl)methyl)piperazin-1-yl)benzoyl)-4-(((1R)-3-(morpholin-4-yl)-1-((phenylsulfanyl)methyl)propyl)amino)-3-((trifluoromethyl)sulfonyl)benzenesulfonamide], for which the EC50 was more than 5 µM in the assay on DMS 114; less than 5 µM in the assay on DMS 53; less than 5 µM in the assay on DMS 79; less than 5 µM in the assay on NCI-H1048; less than 5 µM with NCI-H1417; less than 5 µM in the assay on NCI-H146. The EC50 is more than 5 µM in the assay with NCI-H1688; less than 5 µM in the assay on NCI-H187; less than 5 µM with NCI-H1963; more than 5 µM with NCI-H196 (NCI-H 196, read-out: sensitivity class by EC50); less than 5 µM in the assay with NCI-H209; less than 5 µM in the assay on NCI-H211. Further, the EC50 was less than 5 µM in the assay with NCI-H345; less than 5 µM in the assay with NCI-H446; less than 5 µM in the assay on NCI-H510; more than 5 µM in the assay with NCI-H69AR; less than 5 µM in the assay on NCI-H69; more than 5 µM with NCI-H740. Moreover, the EC50 was more than 5 µM in the assay on NCI-H82, less than 5 µM in the assay with NCI-H889, less than 5 µM in the assay with SHP 77 and more than 5 µM in the assay on SW1271.

`CN(C)CC[C@H](CSc1ccccc1)Nc1ccc(S(=O)(=O)NC(=O)c2ccc(N3CCN(Cc4ccccc4-c4ccc(Cl)cc4)CC3)cc2)cc1[N+](=O)[O-]` [ABT-737, N-(4-(4-((4′-chloro(1,1′-biphenyl)-2-yl)methyl)piperazin-1-yl)benzoyl)-4-(((1R)-3-(dimethylamino)-1-((phenylsulfanyl)methyl)propyl)amino)-3-nitrobenzenesulfonamide]: the EC50 with DMS 114 was more than 5 µM; in the assay on DMS 53, less than 5 µM; in the assay with DMS 79, less than 5 µM; with NCI-H1048, more than 5 µM; with NCI-H1417, less than 5 µM; with NCI-H146, less than 5 µM. The EC50 was less than 5 µM with NCI-H1688; less than 5 µM in the assay on NCI-H187; less than 5 µM in the assay on NCI-H1963; more than 5 µM in the assay with NCI-H196 (read-out: sensitivity class by EC50); less than 5 µM with NCI-H209; less than 5 µM in the assay on NCI-H211. The EC50 with NCI-H345 was less than 5 µM; in the assay on NCI-H446, more than 5 µM; in the assay with NCI-H510 it was less than 5 µM; in the assay with NCI-H69AR, more than 5 µM; in the assay on NCI-H69, less than 5 µM; in the assay with NCI-H740 it was more than 5 µM. The EC50 was more than 5 µM with NCI-H82, less than 5 µM in the assay with NCI-H889, less than 5 µM with SHP 77 and more than 5 µM with SW1271.
